Experimental data: patent publication US20260201008A1, “SECRETIN-DERIVED GLP1R SELECTIVE AGONISTS” (GUBRA A/S, priority 2023, published 2026)
Where two headings read alike, the source gives them in different places. Numbered stars: 1 amine (or outer) side, 2 acyl side, 3 side chain; on linkers, the order of the positions; unused ones are H or OH. Square brackets hold non-standard residues; d marks the D form. Side chains are listed from the residue outwards. Peptide text beside a SMILES is read from it. * marks the point of attachment. C20 diacid = O=C(O)CCCCCCCCCCCCCCCCCCC(=O)*; γGlu = O=C(O)[C@H](CCC(=O)[*:2])N[*:1]; AEEA = NCCOCCOCC(=O)O; Aib = CC(C)(N)C(=O)O

What was measured:
[1] = Fibril formation of crude library peptides (Thioflavin T); assay type: physicochemical; set-up: key: average ThT fluorescence emission at 480 nm (ex 450 nm), raw units; details: Physical stability of peptides
How it was run: (§1)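 Crude peptides at 267 μM in 50 mM sodium acetate pH 4.0 or 50 mM sodium phosphate pH 7.0, pre-incubated 1-2 h at room temperature, then 4 μM final ThT added. Turbidity read first as A600. ThT fluorescence (ex 450/em 480 nm) read every 10 min for 72 h at 40° C, with 5 min shaking before each read; fibril formation = average emission.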

[2] = target: GLP1R (Homo sapiens, UniProt P43220); test: hGLP1R potency, cAMP accumulation in CHO-K1 cells stably overexpressing hGLP1R; assay type: cell-based; set-up: host or cells: CHO-K1; details: for Selectivity: SCTR EC50/GLP1R EC50 ratio; for EC50: cAMP accumulation, CHO-K1 cells overexpressing hGLP1R; for SCTR EC50/GLP1R EC50 ratio: selectivity for hGLP1R over hSCTR, cAMP accumulation in CHO-K1 cells
Sequence of GLP1R (P43220 24-463): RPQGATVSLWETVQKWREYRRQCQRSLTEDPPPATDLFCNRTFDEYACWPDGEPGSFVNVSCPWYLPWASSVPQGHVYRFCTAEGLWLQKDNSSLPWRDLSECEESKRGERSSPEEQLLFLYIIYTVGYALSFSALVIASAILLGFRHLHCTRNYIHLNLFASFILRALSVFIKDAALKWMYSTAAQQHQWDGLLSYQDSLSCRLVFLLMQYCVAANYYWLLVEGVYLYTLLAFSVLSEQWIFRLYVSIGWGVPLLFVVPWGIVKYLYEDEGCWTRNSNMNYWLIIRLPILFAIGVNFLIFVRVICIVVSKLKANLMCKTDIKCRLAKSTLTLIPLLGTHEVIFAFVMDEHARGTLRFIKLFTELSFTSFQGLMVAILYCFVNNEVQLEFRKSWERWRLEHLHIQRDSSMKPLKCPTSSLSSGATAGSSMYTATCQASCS
How it was run: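 Thawed cells go straight into buffer containing 0.5 mM IBMX and 0.05% casein, get graded compound doses for 30 min at room temperature, and are then assayed for accumulated cAMP by time-resolved FRET. Human GLP-1(7-36) serves as positive control; EC50 is derived by nonlinear regression.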

[3] = target: SCTR (Homo sapiens, UniProt P47872); test: hSCTR potency, cAMP accumulation in CHO-K1 cells stably overexpressing hSCTR; assay type: cell-based; set-up: alternatively Euroscreen ES-712-AF; FAST-0161L; host or cells: CHO-K1; details: cAMP accumulation, CHO-K1 cells overexpressing hSCTR
Sequence of SCTR (P47872 23-440): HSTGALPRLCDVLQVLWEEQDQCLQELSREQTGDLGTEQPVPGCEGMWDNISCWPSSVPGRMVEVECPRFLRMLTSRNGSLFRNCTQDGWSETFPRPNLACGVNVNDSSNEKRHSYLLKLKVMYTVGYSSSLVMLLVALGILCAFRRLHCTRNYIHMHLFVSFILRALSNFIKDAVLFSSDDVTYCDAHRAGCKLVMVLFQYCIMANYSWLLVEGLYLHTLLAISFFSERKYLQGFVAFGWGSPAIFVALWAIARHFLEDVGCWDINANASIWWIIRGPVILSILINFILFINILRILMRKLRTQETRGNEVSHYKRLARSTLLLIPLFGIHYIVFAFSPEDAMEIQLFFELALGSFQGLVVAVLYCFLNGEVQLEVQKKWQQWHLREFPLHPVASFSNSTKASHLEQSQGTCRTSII
How it was run: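 Read-out is TR-FRET cAMP detection, recorded one hour after reagent addition, in CHO-K1 cells stably overexpressing hSCTR. Cells in DPBS containing 0.05% casein and 0.5 mM IBMX are exposed to graded peptide doses for 30 min at room temperature, with human secretin as reference agonist.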

[4] = Turbidity of crude library peptides (absorbance at 600 nm); assay type: physicochemical; details: Physical stability of peptides
How it was run: as §1

[5] = read-out: pEC50 hGLPR1 (converted)
[6] = read-out: pEC50 hSCTR (converted)
[7] = read-out: hGLP1R pEC50 (converted)
[8] = read-out: hSCTR pEC50 (converted)

| Fibril formation [1] | Selectivity [2] | EC50 [2, 5] [nM] | EC50 [3, 6] [nM] | Turbidity (pH 7) [4] | EC50 [2, 7] [nM] | SCTR EC50/GLP1R EC50 ratio [2] | EC50 [3, 8] [nM] | Structure (SMILES) |
| --- | --- | --- | --- | --- | --- | --- | --- | --- |
| 6765 | 2365 | 0.2 | 501 | 0.08 |  |  |  | CC(C)C[C@H](NC(=O)[C@H](CCC(=O)O)NC(=O)[C@H](CCCCNC(=O)COCCOCCNC(=O)COCCOCCNC(=O)CC[C@H](NC(=O)CCCCCCCCCCCCCCCCCCC(=O)O)C(=O)O)NC(=O)[C@H](CC(C)C)NC(=O)[C@H](CCCNC(=N)N)NC(=O)[C@H](CO)NC(=O)[C@@H](NC(=O)[C@H](CC(=O)O)NC(=O)[C@H](CO)NC(=O)[C@@H](NC(=O)[C@H](Cc1ccccc1)NC(=O)[C@@H](NC(=O)CNC(=O)[C@H](CCC(=O)O)NC(=O)C(C)(C)NC(=O)[C@@H](N)Cc1c[nH]cn1)[C@@H](C)O)[C@@H](C)O)C(C)C)C(=O)N[C@@H](C)C(=O)N[C@@H](C)C(=O)NC(C)(C)C(=O)N[C@@H](CCC(N)=O)C(=O)N[C@@H](CCCNC(=N)N)C(=O)N[C@@H](Cc1ccccc1)C(=O)N[C@@H](CC(C)C)C(=O)N[C@@H](CCC(=O)O)C(=O)N[C@@H](Cc1c[nH]cn1)C(=O)N[C@@H](CC(C)C)C(=O)N[C@H](C(N)=O)C(C)C [compound 10] (H-H[Aib]EGTFTSDVSRLK([AEEA-AEEA-γGlu-C20 diacid])ELAA[Aib]QRFLEHLV-NH2) |
| 3337 |  |  |  | 0.08 | 0.0251 | 873474 | 25100 | CC(C)C[C@H](NC(=O)[C@H](Cc1ccccc1)NC(=O)[C@H](CCCNC(=N)N)NC(=O)[C@H](CCC(N)=O)NC(=O)[C@H](CC(C)C)NC(=O)C(C)(C)NC(=O)[C@H](C)NC(=O)[C@H](CCC(=O)O)NC(=O)[C@H](CCC(=O)O)NC(=O)[C@H](CCCCNC(=O)COCCOCCNC(=O)COCCOCCNC(=O)CC[C@H](NC(=O)CCCCCCCCCCCCCCCCCCC(=O)O)C(=O)O)NC(=O)[C@H](CC(C)C)NC(=O)[C@H](Cc1ccc(O)cc1)NC(=O)[C@H](CO)NC(=O)[C@@H](NC(=O)[C@H](CC(=O)O)NC(=O)[C@H](CO)NC(=O)[C@@H](NC(=O)[C@H](Cc1ccccc1)NC(=O)[C@@H](NC(=O)CNC(=O)[C@H](CC(C)C)NC(=O)C(C)(C)NC(=O)[C@@H](N)Cc1c[nH]cn1)[C@@H](C)O)[C@@H](C)O)C(C)C)C(=O)N[C@@H](CCC(=O)O)C(=O)N[C@@H](Cc1c[nH]cn1)C(=O)N[C@@H](CC(C)C)C(=O)N[C@H](C(N)=O)C(C)C [compound 170] (H-H[Aib]LGTFTSDVSYLK([AEEA-AEEA-γGlu-C20 diacid])EEA[Aib]LQRFLEHLV-NH2) |
| 20479 | 122180 | 0.0794 | 10000 | 0.08 |  |  |  | CC(C)C[C@H](NC(=O)[C@H](Cc1ccccc1)NC(=O)[C@H](CCCNC(=N)N)NC(=O)[C@H](CCC(N)=O)NC(=O)[C@H](CCC(N)=O)NC(=O)[C@H](C)NC(=O)[C@H](C)NC(=O)[C@H](Cc1ccccc1)NC(=O)[C@H](CCC(=O)O)NC(=O)[C@H](CCCCNC(=O)COCCOCCNC(=O)COCCOCCNC(=O)CC[C@H](NC(=O)CCCCCCCCCCCCCCCCCCC(=O)O)C(=O)O)NC(=O)[C@H](CC(C)C)NC(=O)[C@H](Cc1ccc(O)cc1)NC(=O)[C@H](CO)NC(=O)[C@@H](NC(=O)[C@H](CC(=O)O)NC(=O)[C@H](CO)NC(=O)[C@@H](NC(=O)[C@H](Cc1ccccc1)NC(=O)[C@@H](NC(=O)CNC(=O)[C@H](CCC(=O)O)NC(=O)C(C)(C)NC(=O)[C@@H](N)Cc1c[nH]cn1)[C@@H](C)O)[C@@H](C)O)C(C)C)C(=O)N[C@@H](CCC(=O)O)C(=O)N[C@@H](Cc1c[nH]cn1)C(=O)N[C@@H](CC(C)C)C(=O)N[C@H](C(N)=O)C(C)C [compound 76] (H-H[Aib]EGTFTSDVSYLK([AEEA-AEEA-γGlu-C20 diacid])EFAAQQRFLEHLV-NH2) |
| 10160 |  |  |  | 0.08 | 0.02 | 840427 | 15800 | CC(C)C[C@H](NC(=O)[C@H](Cc1ccccc1)NC(=O)[C@H](CCCNC(=N)N)NC(=O)[C@H](CCC(N)=O)NC(=O)[C@H](CCC(=O)O)NC(=O)[C@H](C)NC(=O)[C@H](C)NC(=O)[C@H](CCC(=O)O)NC(=O)[C@H](CCC(=O)O)NC(=O)[C@H](CCCCNC(=O)COCCOCCNC(=O)COCCOCCNC(=O)CC[C@H](NC(=O)CCCCCCCCCCCCCCCCCCC(=O)O)C(=O)O)NC(=O)[C@H](CC(C)C)NC(=O)[C@H](Cc1ccc(O)cc1)NC(=O)[C@H](CO)NC(=O)[C@@H](NC(=O)[C@H](CC(=O)O)NC(=O)[C@H](CO)NC(=O)[C@@H](NC(=O)[C@H](Cc1ccccc1)NC(=O)[C@@H](NC(=O)CNC(=O)[C@H](CCC(=O)O)NC(=O)C(C)(C)NC(=O)[C@@H](N)Cc1c[nH]cn1)[C@@H](C)O)[C@@H](C)O)C(C)C)C(=O)N[C@@H](CCC(=O)O)C(=O)N[C@@H](Cc1c[nH]cn1)C(=O)N[C@@H](CC(C)C)C(=O)N[C@H](C(N)=O)C(C)C [compound 95] (H-H[Aib]EGTFTSDVSYLK([AEEA-AEEA-γGlu-C20 diacid])EEAAEQRFLEHLV-NH2) |
| 3729 |  |  |  | 0.08 | 0.0126 | 7022 | 100 | CC(C)C[C@H](NC(=O)[C@H](Cc1ccccc1)NC(=O)[C@H](CCCNC(=N)N)NC(=O)[C@H](CCC(N)=O)NC(=O)[C@H](CC(C)C)NC(=O)C(C)(C)NC(=O)[C@H](C)NC(=O)[C@H](CCC(=O)O)NC(=O)[C@H](CCC(=O)O)NC(=O)[C@H](CCCCNC(=O)COCCOCCNC(=O)COCCOCCNC(=O)CC[C@H](NC(=O)CCCCCCCCCCCCCCCCCCC(=O)O)C(=O)O)NC(=O)[C@H](CC(C)C)NC(=O)[C@H](Cc1c[nH]c2ccccc12)NC(=O)[C@H](CO)NC(=O)[C@@H](NC(=O)[C@H](CC(=O)O)NC(=O)[C@H](CO)NC(=O)[C@@H](NC(=O)[C@H](Cc1ccccc1)NC(=O)[C@@H](NC(=O)CNC(=O)[C@H](CCC(=O)O)NC(=O)C(C)(C)NC(=O)[C@@H](N)Cc1c[nH]cn1)[C@@H](C)O)[C@@H](C)O)C(C)C)C(=O)N[C@@H](CCC(=O)O)C(=O)N[C@@H](Cc1c[nH]cn1)C(=O)N[C@@H](CC(C)C)C(=O)N[C@H](C(N)=O)C(C)C [compound 174] (H-H[Aib]EGTFTSDVSWLK([AEEA-AEEA-γGlu-C20 diacid])EEA[Aib]LQRFLEHLV-NH2) |
| 4038 |  |  |  | 0.08 | 0.00631 | 1693 | 10 | CC(C)C[C@H](NC(=O)[C@H](Cc1ccccc1)NC(=O)[C@H](CCCNC(=N)N)NC(=O)[C@H](CCC(N)=O)NC(=O)[C@H](CC(C)C)NC(=O)C(C)(C)NC(=O)[C@H](C)NC(=O)[C@H](CCC(=O)O)NC(=O)[C@H](CCC(=O)O)NC(=O)[C@H](CCCCNC(=O)COCCOCCNC(=O)COCCOCCNC(=O)CC[C@H](NC(=O)CCCCCCCCCCCCCCCCCCC(=O)O)C(=O)O)NC(=O)[C@H](CC(C)C)NC(=O)[C@@H](NC(=O)[C@H](CO)NC(=O)[C@@H](NC(=O)[C@H](CC(=O)O)NC(=O)[C@H](CO)NC(=O)[C@@H](NC(=O)[C@H](Cc1ccccc1)NC(=O)[C@@H](NC(=O)CNC(=O)[C@H](CCC(=O)O)NC(=O)C(C)(C)NC(=O)[C@@H](N)Cc1c[nH]cn1)[C@@H](C)O)[C@@H](C)O)C(C)C)[C@@H](C)O)C(=O)N[C@@H](CCC(=O)O)C(=O)N[C@@H](Cc1c[nH]cn1)C(=O)N[C@@H](CC(C)C)C(=O)N[C@H](C(N)=O)C(C)C [compound 165] (H-H[Aib]EGTFTSDVSTLK([AEEA-AEEA-γGlu-C20 diacid])EEA[Aib]LQRFLEHLV-NH2) |
| 8261 | 43142 | 0.0158 | 794 | 0.08 |  |  |  | CC(C)C[C@H](NC(=O)[C@H](Cc1ccccc1)NC(=O)[C@H](CCCNC(=N)N)NC(=O)[C@H](CCC(N)=O)NC(=O)C(C)(C)NC(=O)[C@H](C)NC(=O)[C@H](C)NC(=O)[C@H](CCC(=O)O)NC(=O)[C@H](CCC(=O)O)NC(=O)[C@H](CCCCNC(=O)COCCOCCNC(=O)COCCOCCNC(=O)CC[C@H](NC(=O)CCCCCCCCCCCCCCCCCCC(=O)O)C(=O)O)NC(=O)[C@H](CC(C)C)NC(=O)[C@@H](NC(=O)[C@H](CO)NC(=O)[C@@H](NC(=O)[C@H](CC(=O)O)NC(=O)[C@H](CO)NC(=O)[C@@H](NC(=O)[C@H](Cc1ccccc1)NC(=O)[C@@H](NC(=O)CNC(=O)[C@H](CCC(=O)O)NC(=O)C(C)(C)NC(=O)[C@@H](N)Cc1c[nH]cn1)[C@@H](C)O)[C@@H](C)O)C(C)C)C(C)C)C(=O)N[C@@H](CCC(=O)O)C(=O)N[C@@H](Cc1c[nH]cn1)C(=O)N[C@@H](CC(C)C)C(=O)N[C@H](C(N)=O)C(C)C [compound 35] (H-H[Aib]EGTFTSDVSVLK([AEEA-AEEA-γGlu-C20 diacid])EEAA[Aib]QRFLEHLV-NH2) |
